Values of other authors in paper PMC8198792, “Prediction of Anticancer Peptides with High Efficacy and Low Toxicity by Hybrid Model Based on 3D Structure of Peptides” (International Journal of Molecular Sciences, 2021).
Like-named read-outs stand apart in the source and are kept apart here.

What was measured:
[1] = system: many types of cells, including non-cancer cells; conditions: toxic peptides dataset TD2; class label 1 (toxic, positive set) or 0 (non-toxic AMP, negative set); ref SATPdb; cited from earlier work
cancer cell lines = system: cancer cell lines; set-up: method as in 6 sources, ref CancerPPD [45] and SATPdb ||| ref CancerPPD/SATPdb ||| ref CancerPPD, SATPdb, Swissprot (PDB) ||| ref CancerPPD/SATPdb/Swissprot(PDB) ||| ref CancerPPD / SATPdb ||| ...; conditions: cited from earlier work
Description: Supplement ijms-22-05630-s001.zip/ACPs(seguence).xlsx, sheet "D1" | column: Activity || Supplement ijms-22-05630-s001.zip/ACPs(seguence).xlsx, sheet "D2" | column: Activity || Supplement ijms-22-05630-s001.zip/ACPs(seguence).xlsx, sheet "D3" | column: Activity || (+ 2 further places)

erythrocytes = conditions: cited from earlier work
Description: Supplement ijms-22-05630-s001.zip/Hemloytic Peptides(seguence).xlsx, sheet "HD1" | column: Activity || Supplement ijms-22-05630-s001.zip/Hemloytic Peptides(seguence).xlsx, sheet "HD2" | column: Activity || Supplement ijms-22-05630-s001.zip/Hemloytic Peptides(seguence).xlsx, sheet "HD3" | column: Activity

[2] = ACPs dataset D3 (supplement sheet "D3"), 1 = ACP, 0 = non-ACP, ref CancerPPD [45] and SATPdb
[3] = ACPs dataset D4 (sheet "D4"), label 1 = ACP, 0 = non-ACP, ref CancerPPD / SATPdb
[4] = ACPs dataset D5, sheet "D5", label 1 = ACP, 0 = non-ACP, ref CancerPPD [45] and SATPdb
[5] = ACPs dataset D1, label 1 = ACP, 0 = non-ACP (non-anticancer AMPs from SATPdb), ref CancerPPD/SATPdb
[6] = ACPs dataset D4 (sheet "D4"), label 1 = ACP (CancerPPD ID), 0 = non-ACP (non-anticancer AMP, SATPdb ID), ref CancerPPD [45] and SATPdb
[7] = hemolytic peptides dataset HD3, 1 = hemolytic (positive set), 0 = non-hemolytic (negative set), labels taken from databases, ref Hemolytik/SATPdb
[8] = natural hemolytic peptide dataset HD1, label collected from databases, ref Hemolytik [49], SATPdb [34]
[9] = Hemolytic peptides dataset HD2, label 1 = hemolytic, 0 = non-hemolytic, ref Hemolytik/SATPdb
[10] = ACPs dataset D3 (sheet "D3"), label 1 = ACP, 0 = non-ACP, ref CancerPPD/SATPdb

## FLSAITSLLGKLL [satpdb15955]
[1]
  Activity: 0

## GKWMSLLKHILK [satpdb20336]
[1]
  Activity: 1

## TKPTLLGLPLGAGPAAGPGKR [satpdb17447]
[1]
  Activity: 0

## GFMKYIGPLIPHAVKAISDLI [satpdb17997]
[1]
  Activity: 1

## FLPLVLGALSGILPKIL [satpdb22972]
[1]
  Activity: 1

## FLPFLIPALTSLISSL [satpdb15275]
[1]
  Activity: 0

## KAYSMPRCKYLFRAVLCWL [satpdb15879]
[1]
  Activity: 0

## FFPLLFGALSSHLPKLF [satpdb16485]
[1]
  Activity: 1

## IIGHLIKTALGMLGL [satpdb15972]
[1]
  Activity: 0

## NFLGTLVNLAKKIL [satpdb20410]
[1]
  Activity: 1

## FLSGIVGMLGKLF [satpdb21516]
[1]
  Activity: 1

## FFGAIAAALPHVISAIKNAL [satpdb28842]
[1]
  Activity: 1

## GFIFHIIKGLFHAGKMIHGLV [satpdb15908]
[1]
  Activity: 0

## GVVTDLLNTAGGLLGNLVGSLSG [satpdb21886]
[1]
  Activity: 1

## IFGAILPLALGALKNLIK [satpdb27411]
[1]
  Activity: 1

## GIGGALLSAGKAALKGLAKVLV [satpdb22839]
[1]
  Activity: 1

## LGPALITRKPLKGKP [satpdb17072]
[1]
  Activity: 0

## FLGLLGSLL [satpdb15039]
[1]
  Activity: 0

## ALYLAIRRR [satpdb16531]
[1]
  Activity: 0

## KISKKIMRTFLRRILTGKK [satpdb19592]
[1]
  Activity: 1

## GWLRKAAKSVGKFYYKHKYYIKAAWKIGRHAL [satpdb17212]
[1]
  Activity: 0

## IIGAIAAALPHVINAIKNTF [satpdb19948]
[1]
  Activity: 1

## FISGLIGGLMKAL [satpdb16102]
[1]
  Activity: 0

## FLPAALAGIGGILGKLF [satpdb24046]
[1]
  Activity: 1

## FFPLVLGALGSILPKIF [satpdb25475]
[1]
  Activity: 1

## GLVTSLIKGAGKLLGGLFGSVTG [satpdb15873]
[1]
  Activity: 0

## ALKAALLAILKIVRVIKK [satpdb15928]
[1]
  Activity: 0

## GLFDIIKKVASVIGGL [satpdb15856]
[1]
  Activity: 0

## GLFDIIKKIAESF [satpdb11488]
[1]
  Activity: 0

## GLVTGLLKTAGKLLGDLFGSLSG [satpdb20565]
[1]
  Activity: 1

## LLDVLLE [satpdb11533]
[1]
  Activity: 0

## FLPLLFGALSTLLPKIF [satpdb23665]
[1]
  Activity: 1

## GVLDILKNAAKNILAHAAEQI [satpdb26113]
[1]
  Activity: 1

## LLPIVGNLLNSLL [satpdb24565]
[1]
  Activity: 1

## FLGAIAAALPHVINAVTNAL [satpdb16106]
[1]
  Activity: 1

## RFRLPFRRPPIRIHPPPFYPPFRRFL [satpdb12266]
[1]
  Activity: 1

## FLPLIGKILGTIL [satpdb15913]
[1]
  Activity: 0

## GFKDLLKGAAKALVKTVLF [satpdb25277]
[1]
  Activity: 1

## GLKDIFKAGLGSLVKNIAAHVAN [satpdb11475]
[1]
  Activity: 0

## FFGWLIKGAIHAGKAIHGLIHRRRH [satpdb28313]
[1]
  Activity: 1

## GVVTDLLKTAGKLLGNLVGSLSG [satpdb26504]
[1]
  Activity: 1

## GRRRRSVQWCAVSQPEATKCFQWQRNMRKVRGPPVSCIKRDSPIQCIQA [satpdb10374]
[1]
  Activity: 0

## FIGAILPAIAGLVHGLINR [satpdb19442]
[1]
  Activity: 1

## GMWSKILGHLIR [satpdb20159]
[1]
  Activity: 1

## VDIHVWD*GV [satpdb19274]
[1]
  Activity: 1

## ILPILSLIGGLLGK [satpdb11856]
[1]
  Activity: 0

## LALALKHALHKALLLAKHLAHKLALA [satpdb16273]
[1]
  Activity: 0

## RILRGVSRRIMRRILTGRR [satpdb20239]
[1]
  Activity: 1

## SAPRGCWTKSYPPKPCK [satpdb28266]
[1]
  Activity: 1

## GVVDILKGAGKDLLAHLVGKISEKV [satpdb27434]
[1]
  Activity: 1

## LLGMIPLAISAISALSKL [satpdb26571]
[1]
  Activity: 1

## GLLDFVTGVGKDIFAQLIKQI [satpdb25435]
[1]
  Activity: 1

## FLPAIAGILSQLF [satpdb10431]
Cancer cell lines; [2]
  Activity: 0
Cancer cell lines; [3]
  Activity: 0
Cancer cell lines; [4]
  Activity: 0
erythrocytes
  Activity: 1

## MQFITDLIKKAVDFFKGLFGNK [satpdb11952]
Cancer cell lines; [5]
  Activity: 0
Cancer cell lines; [6]
  Activity: 0
erythrocytes; [7]
  Activity: 1
erythrocytes; [8]
  Activity (dataset HD1, hemolytic 1 / non-hemolytic 0): 1

## KKKLLLLLLLLLKKK [satpdb10761]
Cancer cell lines; [2]
  Activity: 0
Cancer cell lines; [3]
  Activity: 0
Cancer cell lines; [4]
  Activity: 0
erythrocytes; [9]
  Activity: 1
erythrocytes; [7]
  Activity: 1

## KKVVFKVKFKK [satpdb13401]
Cancer cell lines; [10]
  Activity: 0
Cancer cell lines; [3]
  Activity: 0
Cancer cell lines; [4]
  Activity: 0
erythrocytes
  Activity: 0

## GLGSLLGKAFKIGLKTVGKMMGGAPREQ [satpdb12448]
Cancer cell lines; [5]
  Activity: 0
Cancer cell lines; [6]
  Activity: 0
erythrocytes
  Activity: 1
  Activity (dataset HD1, hemolytic 1 / non-hemolytic 0): 1

## yPVKLyPVKL [satpdb11316]
Cancer cell lines; [2]
  Activity: 0
Cancer cell lines; [3]
  Activity: 0
Cancer cell lines; [4]
  Activity: 0
erythrocytes; [9]
  Activity: 1
erythrocytes; [7]
  Activity: 1

## RRWPWWPWKWPLI [satpdb10003]
Cancer cell lines; [2]
  Activity: 0
Cancer cell lines; [3]
  Activity: 0
Cancer cell lines; [4]
  Activity: 0
erythrocytes
  Activity: 1

## VKLGVyPLKVKLyP [satpdb12769]
Cancer cell lines; [10]
  Activity: 0
Cancer cell lines; [3]
  Activity: 0
Cancer cell lines; [4]
  Activity: 0
erythrocytes
  Activity: 1

## FKCKKVVISLRRY [satpdb11913]
Cancer cell lines; [5]
  Activity: 0
Cancer cell lines; [6]
  Activity: 0
erythrocytes; [7]
  Activity: 0
erythrocytes; [8]
  Activity (dataset HD1, hemolytic 1 / non-hemolytic 0): 0

## GLLSGILGAGKQKVCGLSGLC [satpdb12339]
Cancer cell lines; [5]
  Activity: 0
Cancer cell lines; [6]
  Activity: 0
erythrocytes
  Activity: 1
  Activity (dataset HD1, hemolytic 1 / non-hemolytic 0): 1

## GFLSILKKVLAKVMAHMK [satpdb13478]
Cancer cell lines; [10]
  Activity: 0
Cancer cell lines; [3]
  Activity: 0
Cancer cell lines; [4]
  Activity: 0
erythrocytes; [9]
  Activity: 1
erythrocytes; [7]
  Activity: 1

## VKLKVyPLKvKLyP [satpdb12258]
Cancer cell lines; [10]
  Activity: 0
Cancer cell lines; [3]
  Activity: 0
Cancer cell lines; [4]
  Activity: 0
erythrocytes; [9]
  Activity: 1
erythrocytes; [7]
  Activity: 1

## FLPLIGAVLSGIL [satpdb13723]
Cancer cell lines; [10]
  Activity: 0
Cancer cell lines; [3]
  Activity: 0
Cancer cell lines; [4]
  Activity: 0
erythrocytes
  Activity: 1

## IWRIFRRIFRIF [satpdb11167]
Cancer cell lines; [2]
  Activity: 0
Cancer cell lines; [3]
  Activity: 0
Cancer cell lines; [4]
  Activity: 0
erythrocytes; [9]
  Activity: 1
erythrocytes; [7]
  Activity: 1

## VKlKVyPLKVKLyP [satpdb13308]
Cancer cell lines; [10]
  Activity: 0
Cancer cell lines; [3]
  Activity: 0
Cancer cell lines; [4]
  Activity: 0
erythrocytes
  Activity: 1

## GLVTSLIKGAGKLLGGLFGSVTGGQS [satpdb13110]
Cancer cell lines; [5]
  Activity: 0
Cancer cell lines; [3]
  Activity: 0
erythrocytes
  Activity: 1
  Activity (dataset HD1, hemolytic 1 / non-hemolytic 0): 1

## LLIILRRRWRKQARARSK [satpdb13104]
Cancer cell lines; [10]
  Activity: 0
Cancer cell lines; [3]
  Activity: 0
Cancer cell lines; [4]
  Activity: 0
erythrocytes
  Activity: 1

## ILPWKWPKLPWRR [satpdb13392]
Cancer cell lines; [10]
  Activity: 0
Cancer cell lines; [3]
  Activity: 0
Cancer cell lines; [4]
  Activity: 0
erythrocytes
  Activity: 0

## LLIILKKKWKKQAKAKSK [satpdb13450]
Cancer cell lines; [10]
  Activity: 0
Cancer cell lines; [3]
  Activity: 0
Cancer cell lines; [4]
  Activity: 0
erythrocytes; [9]
  Activity: 1
erythrocytes; [7]
  Activity: 1

## LKKLLKWLKKL [satpdb13099]
Cancer cell lines; [10]
  Activity: 0
Cancer cell lines; [3]
  Activity: 0
Cancer cell lines; [4]
  Activity: 0
erythrocytes
  Activity: 1

## FLPILGKLLSGIL [satpdb10106]
Cancer cell lines; [2]
  Activity: 0
Cancer cell lines; [3]
  Activity: 0
Cancer cell lines; [4]
  Activity: 0
erythrocytes; [9]
  Activity: 1
erythrocytes; [7]
  Activity: 1

## GFLSILKKVLGKVMAHMK [satpdb11125]
Cancer cell lines; [2]
  Activity: 0
Cancer cell lines; [3]
  Activity: 0
Cancer cell lines; [4]
  Activity: 0
erythrocytes; [9]
  Activity: 1
erythrocytes; [7]
  Activity: 1

## ILPFKFPFFPFRR [satpdb11100]
Cancer cell lines; [2]
  Activity: 0
Cancer cell lines; [3]
  Activity: 0
Cancer cell lines; [4]
  Activity: 0
erythrocytes; [9]
  Activity: 1
erythrocytes; [7]
  Activity: 1

## RFGRFLRKIRRFRPKVTITIQGSARFG [satpdb11815]
Cancer cell lines; [5]
  Activity: 0
Cancer cell lines; [6]
  Activity: 0
erythrocytes
  Activity: 1
  Activity (dataset HD1, hemolytic 1 / non-hemolytic 0): 1

## PICKRNGLPVCGETCTLGTCYTQGCTCSW [satpdb10279]
Cancer cell lines; [5]
  Activity: 0
Cancer cell lines; [6]
  Activity: 0
erythrocytes; [7]
  Activity: 1
erythrocytes; [8]
  Activity (dataset HD1, hemolytic 1 / non-hemolytic 0): 1
